From patent US20260373103A1, “COMPOSITIONS AND METHODS FOR PREVENTING CARDIOMYOPATHY” (OHIO STATE INNOVATION FOUNDATION, priority 2022, published 2026)
“Also recorded” adds a separate entry of the source.

Experiments:
[1] = test system: TOM20; experiment: TOM20 ubiquitination and TOM20 protein level after A/O, western blot; format: cell-based
Procedure: (§1) HeLa cells and mouse embryonic fibroblasts (MEFs) were grown in Dulbecco's minimum essential medium (DMEM) with 10% fetal bovine serum (FBS) supplemented with penicillin-streptomycin. HeLa Parkin, PINK1 KO cells, WT and MFN2 KO cells were previously described. Cells stably expressing USP30 were generated using lentiviral vectors of pLVX-Puro-Myc-USP30. The USP30 plasmid was obtained from Addgene. The plasmid was transferred into a lentiviral vector and viral particles were prepared by transiently transfecting HEK293T using standard methods. For the drug treatment experiments, cells were incubated in medium containing a mixture of 5 μM oligomycin and 5 μM antimycin A (A/O; see figures for treatment times). In 18 h treatment, A/O were used in combination with 10 μM quinolyl-valyl-O-methylaspartyl-[−2,6-difluorophenoxy]-methyl ketone (QVD), a broad-spectrum caspase inhibitor. ST51000539 (ST-539) was purchased from Tim Tec, Inc. Other chemicals were from Sigma-Aldrich (St. Louis, MO, USA). For FACS analysis, cells stably expressing mt-Keima were incubated in medium containing a mixture of […] antimycin A for 1.5 h. Prior to A/O treatment, cultures were treated with DMSO or ST-539 at 3 μg/ml. Cells were trypsinized, washed once with PBS buffer and then resuspended into 500 μl of PBS prior to analysis using a BD Fortessa flow cytometer as previously described.
Cells were lysed in RIPA buffer (50 mM Tris-HCl, at pH 8.0; 150 mM NaCl; 1% (vol/vol) Nonidet P-40; 0.5% sodium deoxycholate, 0.1% SDS and protease inhibitor cocktail (Roche)) on ice. Primary antibodies were used at the following concentrations: USP30 (Santa Cruz, sc-515235, 1:200); TOM20 (Cell Signaling Technology, 42406S, 1:1000); TOM40 (Proteintech, 18409-1-AP, 1:1000); NDP52 (Cell Signaling Technology, 60732S, 1:1000); TIM23 (Proteintech, 11123-1-AP, 1:500); LC3A/B (Cell Signaling Technology, 4108S, 1:1000); GAPDH (Cell Signaling Technology, 5175S, 1:1000); PINK1 (Cell Signaling Technology, 6946S, 1:1000); ACTIN (Cell Signaling Technology, 3700S, 1:1000). The membranes were incubated with anti-rabbit (LI-COR, 926-32211, 1:15000) or anti-mouse (LI-COR, 926-68072, 1:15000) IgG secondary antibodies for 1 h at room temperature. Images were captured using the Odyssey system (LI-Cor). One representative blot is shown of three independent experiments.
(§2) The enzymatic activity of Parkin is to function as an E3 ubiquitin ligase. […] To investigate TOM20 ubiquitination during mitophagy, we treated HeLa cells stably expressing YFP-Parkin (Hela-Parkin) for up to 18 h with both the mitochondrial complex III inhibitor antimycin A and the ATP synthase inhibitor oligomycin (antimycin A/oligomycin/[A/O]; FIG. 1A). […] A/O treatment also results in a decline in the abundance of the OMM protein TOM40 and the inner mitochondrial protein TIM23 (FIG. 1A). […] In this context, increased expression of USP30 blocked the accumulation of ubiquitinated TOM20 and prevented the destruction of this outer mitochondrial protein, as well as TOM40 and TIM23, after A/O treatment (FIG. 1A). We then employed this cellular assay to monitor TOM20 turnover, and analyzed compounds known to be associated with the ubiquitination process for inhibitors of USP30. […] We defined the effects of this chemical using biochemical assays. […] Initially to assess mitophagy in cells, we monitored the degradation of the inner membrane protein, the translocase of the inner membrane 23 (TIM23), by immunoblotting (FIG. 5A). […] USP30's overexpression prevented a reduction in TIM23 and TOM40 levels.
Genetic suppression of USP30 in Parkin-overexpressing cells promotes the clearance of mitochondria in response to mitochondrial depolarizing agents. […]

[2] = test system: mitochondrial function; experiment: Mitochondrial function overall in cells; format: cell-based; settings: regardless of USP30 expression
Procedure: as §1

[3] = test system: USP30; settings: in vitro; compound and similar structures; cited from earlier work
[4] = test system: HeLa cells; experiment: Mitophagy inducer screen by TOM20 turnover; format: cell-based; settings: cellular TOM20 turnover assay
Procedure: as §2

[5] = test system: HeLa-Parkin or HeLa-Parkin/USP30 cells; experiment: Mitochondrial membrane potential (TMRM signal); format: cell-based; settings: ST-539 3 to 10 μg/ml
Procedure: ΔΨm was measured using a fluorescence microplate reader (BioTek Instruments) in cells preincubated with Tetramethylrhodamine methyl ester (TMRM, Thermo Scientific) following manufacturer's instructions. Cells were washed in PBS before resuspension in Hank's balanced salt solution (HBSS; 156 mM NaCl, 3 mM KCl, 2 mM MgSO4, 1.25 mM KH2PO4, 2 mM CaCl2), 10 mM glucose and 10 mM HEPES; pH adjusted to 7.35 with NaOH) (1.0×10^6 cells/ml) containing 50 nM TMRM. For each individual experiment, average TMRM fluorescence was normalized to control cells.
We initially analyzed mitochondrial function using Tetramethylrhodamine (TMRM), a dye requiring mitochondrial membrane potential to accumulate within the mitochondria.

[6] = test system: Human induced pluripotent stem cell-derived cardiomyocytes; experiment: Doxorubicin-induced cell death in hiPSC-CMs; format: cell-based; settings: 48 hours, doxorubicin+ST-539
[7] = test system: HeLa-Parkin and HeLa-Parkin cells expressing USP30; experiment: Oxygen consumption, Seahorse assay; format: cell-based
Procedure: Measurement of intact cellular respiration was performed using the Seahorse XFe96 Analyzer as previously described. In brief, 2×10^4 cells per well were seeded in the Seahorse XF Cell Culture Microplate (Agilent) using high-glucose DMEM at 37 °C, with a humidified atmosphere of 5% CO2, overnight. And a sensor cartridge was hydrated in Seahorse XF Calibrant in a non-CO2 incubator overnight at 37 °C. The high-glucose DMEM in Cell Culture Microplate was changed to warmed assay medium and placed into a 37 °C non-CO2 incubator for 45 minutes prior to the assay. Oligomycin (1.5 μM/well), FCCP (1 μM/well) and Antimycin A (0.5 μM/well) were supplemented at 18 minutes, 36 minutes and 54 minutes, respectively. The results were analyzed using the Seahorse Wave software.

[8] = ST-539 10 μg/ml, with A/O, presence of USP30

CC(C)(C)NS(=O)(=O)c1cccc2c(NC(=O)C(Cc3ccccc3)NC(=O)c3ccccc3)cccc12 (stereo not shown) [ST-539]
TOM20 ubiquitination and decline in TOM20 level on addition of ST-539 ([1]; A/O plus ST-539 1 or 3 μg/ml, cells expressing both ectopic Parkin and endogenous PINK1): further potentiated
correlation of TOM20 ubiquitination with ST-539 dosage ([1]; A/O treatment): A close correlation exists
reduction in TOM20 level relative to vehicle treated cells ([1]; Parkin positive cells, A/O 18 h, ST-539 3 μg/ml, not in WT HeLa or PINK1 KO cells): more significant reduction
TOM20 ubiquitination [1, 8]: caused a ubiquitinated TOM20
loss of TOM20 protein level [1, 8]: ~ 90%
TOM20 ubiquitination independent of functional PINK1/Parkin pathway ([1]; long term treatment (18 h), ST-539 3 μg/ml): did not promote TOM20 ubiquitination
effect on mitochondrial function [2]: minimal effect on mitochondrial function; also recorded: marginally alters mitochondrial function
USP30 enzyme function inhibition [3]: selectively inhibit USP30 enzyme function in vitro
potency as mitophagy inducer in screen [4]: most potent mitophagy inducer
TMRM staining (mitochondrial membrane potential) [5]: did not block TMRM staining
doxorubicin-induced cell death (percent survival of hiPSC-CMs) [6]: reduces doxorubicin-induced cell death
basal and maximal respiration ([7]; 24 h ST-539, high dose): slight increase
basal respiration and spare respiratory capacity ([7]; ST-539, both cell lines): Slightly increased
